Data from patent US4973578A, “Synthetic peptides derived from the alpha-subunit of human lycoprotein hormones” (Mayo Foundation for Medical Education and Research, priority 1988, dated 1990).
Several values for one entry are separate records, joined by “and”; a condition that tells them apart may be missing. Equal entries are not always repeated. Residues, ends and D or L forms follow the SMILES beside them.

Tests used:
[1] = tested on: cAMP production (adenylate cyclase activity) in FRTL-5 cells; assay: TSH bioassay, cAMP stimulation in FRTL-5 cells; assay type: cell-based, rat; details: at least 2 separate assays
Method: (§1) FRTL-5 cells were maintained in Ham's F-12 medium supplemented with 5% calf serum and a 6 hormone preparation including 10 mU/ml bTSH as described by Ambesi-Impiombato et al., Proc. Natl. Acad. Sci. U.S.A., 77:3455 (1980), the disclosure of which is incorporated herein. For all assays herein described, the cells were plated in 24 well plates and grown for 3 days at 37° C. then maintained for 5-7 days in medium supplemented with 10 ug insulin alone prior to assay.
(§2) The bioassay was a modification of those previously described by Bidey et al, J. Endocrinol., 101:269 (1984); and Kasagi et al., ACTA Endocrinol., 115:30 (1987). To duplicate culture wells were added varying concentrations of test materials (see below) in a final volume of 300 ul of NaCl free HBSS with 0.5 mM iso-butyl-methyl-xanthine (IBMX, Sigma, St. Louis). In stimulation assays, only synthetic α-subunit peptides were added to the incubation medium. […] Basal cAMP levels were determined in the presence of HBSS and IBMX alone. In inhibition assays percent inhibition was calculated as follows: [formula]
The standard curve for TSH is shown in FIG. 3 and reports TSH deprived FRTL-5 cells incubated for 2 hrs. in buffer (NaCl-free HBSS, 200 mM sucrose, 0.5% BSA, 0.5 mM IBMX) with increasing concentrations of bTSH. cAMP released into the incubation media was measured by RIA. […]

[2] = tested on: TSH mediated cAMP generation in FRTL-5 cells; assay: Inhibition of TSH mediated cAMP generation in FRTL-5 cells; assay type: cell-based, rat; details: 200 mU/L bTSH, 2 hrs 37° C.
Method: as §1
as §2, with “medium. For inhibition assays, the noted concentrations of synthetic α-subunit peptides were added immediately prior to the addition of 200 mU/L bTSH. The plates were incubated at 37° C. in 5% CO2 for 2 hrs then 100 ul of incubation medium was removed and diluted in 900 ul of 0.05M sodium acetate pH 6.2 and assayed for cAMP content by RIA in accordance with procedures described by Wray and Glinos, Am. J. Physiol., 234 (Cell Phisol. 3):C131(1978)); and Steiner et al., J. Biol. Chem., 247:1106 (1972).” for “medium.”
FIG. 4 reports data obtained for TSH deprived FRTL-5 cells incubated with a fixed amount of bTSH (200 mU/l) by itself or with various concentrations of synthetic peptides. cAMP content of medium was measured after 2 hrs. incubation at 37° C. Percent inhibition of cAMP generation was calculated as noted above.

SMILES: CSCC[C@H](NC(=O)[C@H](CS)NC(=O)[C@H](CCC(N)=O)NC(=O)[C@@H](N)CC(C)C)C(=O)NCC(=O)N[C@@H](CS)C(=O)N[C@@H](CS)C(=O)N[C@@H](Cc1ccccc1)C(=O)N[C@@H](CO)C(=O)N[C@@H](CCCNC(=N)N)C(=O)N[C@@H](C)C(=O)N[C@@H](Cc1ccc(O)cc1)C(=O)N1CCC[C@H]1C(=O)N[C@H](C(=O)N1CCC[C@H]1C(=O)N[C@@H](CC(C)C)C(=O)N[C@@H](CCCNC(=N)N)C(=O)N[C@@H](CO)C(=O)N[C@@H](CCCCN)C(=O)N[C@@H](CCCCN)C(=O)N[C@H](C(N)=O)[C@@H](C)O)[C@@H](C)O [α26-46, Leu--Gln--Cys--Met--Gly--Cys--Cys--Phe--Ser--Arg--Ala--Tyr--Pro--Thr--Pro--Leu--Arg--Ser--Lys--Lys--Thr--(NH2)] (H-LQCMGCCFSRAYPTPLRSKKT-NH2)
- stimulation of cAMP levels over basal by peptide alone, in words [1]: no ability to stimulate cAMP production
- percent inhibition of TSH mediated cAMP generation ([2]; peptide 33.3 ug/ml): 65.0±2.6% and 64.97%
- percent inhibition of TSH mediated cAMP generation ([2]; peptide 66.7 ug/ml): 95.6±3.1% and 95.62%
- percent inhibition of TSH mediated cAMP generation ([2]; peptide 133.3 ug/ml): 106±0.8% and 106.70%
